In PubChem BioAssay (NCI) one finds GI50 and TGI data, which are given here for nine compounds.

Several values for one entry are separate records, joined by “and”; a condition that tells them apart may be missing. Equal values may be shown once.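 Protocol summary: plate cells (96-well), add compound at 5 concentrations, incubate 48 h, interpolate endpoints linearly. GI50: concentration for 50% inhibition of growth. TGI denotes the concentration required for complete inhibition of growth.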

What all share (experiment): DTP human tumour cell line panel, 48 h
Test [1] relates to CCRF-CEM leukemia.
Test [2] concerns HCT-15 colon.
The test system of test [3] is HL-60(TB) leukemia.
Test [4] relates to MOLT-4 leukemia.
Test [5] deals with NCI-H460 lung.
In test [6] the test system is RPMI-8226 leukemia.
For test [7], the system named is SF-295 CNS.
In test [8] the test system is SF-539 CNS.
The test system of test [9] is SK-MEL-28 melanoma.
For test [10], the system named is SW-620 colon.

Broadly, the GI50 is the concentration giving 50% growth inhibition. As a reminder, the TGI is the concentration giving total growth inhibition. Read a low TGI as more potent growth arrest.

Take `N.N.O=C([O-])P(=O)([O-])[O-].[Na+].[Pt+4]`: the GI50 in [1], in test [2], in [3], in test [4], in test [5] and in test [6] was greater than 100 µM each time. For the same compound, the GI50 in test [7], in test [8], in test [9] and in [10] was greater than 100 µM in each case. The TGI in test [1], in test [2], in test [3], in [4], in [5] and in [6] was greater than 100 µM throughout. The total growth inhibition concentration (TGI) in [7], in test [8], in [9] and in [10] was greater than 100 µM in each case.
As to `CN1C(=O)c2ccccc2NC(=O)C12O[C@@H]2c1cccc(O)c1` (stereo not given in full), the TGI in test [1], in test [2], in test [3], in test [4], in test [5] and in test [6] was greater than 100 µM in each case. Besides, the concentration for total growth inhibition (TGI) in test [7], in test [8], in test [9] and in test [10] was greater than 100 µM in each case.
In the case of `O=c1[nH]c(=O)n(C2OC(CO)C(O)C(O)C2O)cc1F` (stereo not given), the TGI in test [1] was greater than 100 µM; in test [2], greater than 100 µM; in test [3], greater than 74.5 µM; in test [4] it was greater than 100 µM; in test [5], greater than 100 µM; in [6], greater than 100 µM. Further, the TGI in [7], in test [8], in [9] and in [10] was greater than 100 µM throughout.
On to `O=C1OC(c2ccco2)=N/C1=C\c1cccc([N+](=O)[O-])c1`, for which the TGI in test [1], in [2], in test [3], in [4], in test [5] and in test [6] was greater than 100 µM in each case. For the same compound, the TGI in [7], in [8], in test [9] and in test [10] was greater than 100 µM each time.
On to `CC(C)(C)c1cc(NC(=O)Cc2ccc(-c3cnc4cc(-c5cnn(CCN6CCOCC6)c5)ccc4n3)cc2)no1`, for which the GI50 is 0.163 µM and 0.388 µM and 0.107 µM in test [1]; 0.166 µM and 0.342 µM and 0.0517 µM in test [2]; 0.225 µM and 0.546 µM and 0.158 µM in [3]; 0.26 µM and 0.429 µM and 0.115 µM in [4]; 0.181 µM and 0.32 µM and 0.0456 µM in test [5]; 0.249 µM and 0.609 µM and 0.0985 µM in test [6]. Besides, the GI50 is 0.436 µM and 0.461 µM and 0.0839 µM in test [7]; 0.0878 µM and 0.236 µM and 0.344 µM in test [8]; 0.885 µM and 0.826 µM and 0.139 µM in test [9]; 0.22 µM and 0.414 µM and 0.0878 µM in test [10]. The TGI was 22.8 µM and > 100 µM and > 3 µM in test [1]; 50 µM and > 100 µM and > 3 µM in test [2]; 50 µM and > 100 µM and > 3 µM in [3]; 50 µM and > 100 µM and > 3 µM in test [4]; 50 µM and > 100 µM and > 3 µM in [5]; 50 µM and > 100 µM and > 3 µM in test [6]. The TGI in test [7] was 50 µM and > 100 µM and > 3 µM; in test [8], 3.68 µM and 3.05 µM and > 3 µM; in [9], 50 µM and > 100 µM and > 3 µM; in test [10] it was 9.2 µM and 67.1 µM and > 1.25 µM.
With `Cc1nc(-c2ccccc2)c(-c2ccccc2)s1`, the TGI was 40.3 µM in test [1]; 39 µM in [2]; 28.5 µM in [3]; 38.8 µM in [4]; 42.2 µM in test [5]; 37.5 µM in test [6]. Also, the TGI was greater than 100 µM in [7], 71.4 µM in [8], greater than 100 µM in [9] and 39.6 µM in test [10].
Regarding `CC(C)c1ccc(C(c2ccc(OCC(=O)O)cc2)c2ccc(C(C)C)cc(=O)c2O)c(O)c(=O)c1`, the TGI in [1] was found to be 85.2 µM; in [2], 22.9 µM; in test [3], 15 µM; in test [4] it was 30.7 µM; in [5] it was 8.34 µM; in test [6] it was 47 µM. Further, the TGI in test [7] is 55.1 µM; in test [8] it was 31.3 µM; in test [9], 24.5 µM; in test [10], greater than 100 µM.
Turning to `O=C(O)[C@@H]1CCCCN1Cc1cc2cc3c(cc2c2cc(OCc4ccccc4)ccc12)OCO3`, the GI50 in [1] was 14.9 µM; in test [2], 3.27 µM; in test [3], greater than 100 µM; in test [4], 63.3 µM; in test [5], 1.49 µM; in [6] it was 24 µM. Moreover, the GI50 in [7] is 1.95 µM; in test [8], 3.87 µM; in test [9], 2.21 µM; in [10] it was 1.84 µM. Moreover, the TGI was greater than 100 µM in test [1]; 13.7 µM in test [2]; greater than 100 µM in test [3]; greater than 100 µM in [4]; 3.39 µM in test [5]; 77.4 µM in test [6]. The TGI in [7] is 8.3 µM; in test [8] it was 16.6 µM; in [9] it was 7.28 µM; in test [10], 13.8 µM.
Consider `Nc1nc(-c2cccc(Cl)c2)c(-c2ccc3ncccc3n2)s1`, for which the GI50 in [1], in [2], in test [3], in [4], in test [5] and in test [6] was greater than 25 µM throughout. The GI50 in test [7], in [8], in test [9] and in test [10] was greater than 25 µM in each case. Moreover, the TGI in test [1], in test [2], in [3], in test [4], in [5] and in test [6] was greater than 25 µM each time. The TGI in test [7], in test [8], in test [9] and in test [10] was greater than 25 µM each time.
